Source: patent EP0490590A1, “New benzodiazepine analogs” (MERCK & CO. INC., priority 1990, dated 1992)

Assays:
CCK receptor (pancreas) = target: T1, CCK receptor (pancreas) (Rattus norvegicus, UniProt P30551); experiment: CCK Receptor Binding (Pancreas), 125I-CCK-33; settings: inhibition of 125I-CCK-33 binding, rat pancreas membranes, 37°C, 30 minutes
T1 construct: The whole pancreas was dissected free of fat tissue and was homogenized; from tissue; host or cells: rat whole pancreas membrane homogenate
T1 sequence (P30551 1-444): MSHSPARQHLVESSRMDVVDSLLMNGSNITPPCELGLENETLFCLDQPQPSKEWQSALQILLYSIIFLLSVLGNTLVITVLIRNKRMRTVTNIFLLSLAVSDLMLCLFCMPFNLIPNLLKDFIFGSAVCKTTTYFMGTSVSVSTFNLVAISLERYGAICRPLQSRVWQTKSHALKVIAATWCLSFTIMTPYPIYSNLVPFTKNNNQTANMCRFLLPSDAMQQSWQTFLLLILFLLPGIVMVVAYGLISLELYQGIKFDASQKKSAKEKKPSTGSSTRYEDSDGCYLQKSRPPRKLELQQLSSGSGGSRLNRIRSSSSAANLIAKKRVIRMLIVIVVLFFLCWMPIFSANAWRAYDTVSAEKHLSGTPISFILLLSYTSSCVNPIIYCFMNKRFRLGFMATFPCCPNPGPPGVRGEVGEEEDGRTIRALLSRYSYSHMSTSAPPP
Protocol: 1. CCK Receptor Binding (Pancreas)
CCK-33 was radiolabeled with ¹²⁵I-Bolton Hunter reagent (2000 Ci/mmole) as described by Sankara et al. (J. Biol. Chem. 254: 9349-9351, 1979). Receptor binding was performed according to Innis and Snyder (Proc. Natl. Acad. Sci. 77, 6917-6921, 1980) with the minor modification of adding the additional protease inhibitors, phenylmethane sulfonyl fluoride and o-phenanthroline. The latter two compounds have no effect on the ¹²⁵I-CCK receptor binding assay.
Male Sprague-Dawley rats (200-350g) were sacrificed by decapitation. The whole pancreas was dissected free of fat tissue and was homogenized in 20 volumes of ice-cold 50 mM, Tris HCl (pH 7.7 at 25°C) with a Brinkmann Polytron PT 10. The homogenates were centrifuged at 48,000 g for 10 min. Pellets were resuspended in Tris Buffer, centrifuged as above and resuspended in 200 volumes of binding assay buffer (50 mM Tris HCl, pH 7.7 at 25°C, 5 mM dithiothrietol, 0.1 mM bacitracin, 1.2 mM phenylmethane sulfonyl fluoride and 0.5 mM o-phenanthroline). […] The supernatant was aspirated and discarded, pellets were counted with a Beckman gamma 5000. […]

[1] = target: T2, CCK receptor (brain, cerebral cortex) (Cavia porcellus, UniProt H0VZC5); experiment: CCK Receptor Binding (Brain), 125I-CCK-33; settings: inhibition of 125I-CCK-33 binding, guinea pig cerebral cortex membranes, 25°C, 2 hours
T2 construct: Cerebral cortex was dissected and used as a receptor source; from tissue; host or cells: guinea pig cerebral cortex membranes
T2 sequence (H0VZC5 entry or part of it): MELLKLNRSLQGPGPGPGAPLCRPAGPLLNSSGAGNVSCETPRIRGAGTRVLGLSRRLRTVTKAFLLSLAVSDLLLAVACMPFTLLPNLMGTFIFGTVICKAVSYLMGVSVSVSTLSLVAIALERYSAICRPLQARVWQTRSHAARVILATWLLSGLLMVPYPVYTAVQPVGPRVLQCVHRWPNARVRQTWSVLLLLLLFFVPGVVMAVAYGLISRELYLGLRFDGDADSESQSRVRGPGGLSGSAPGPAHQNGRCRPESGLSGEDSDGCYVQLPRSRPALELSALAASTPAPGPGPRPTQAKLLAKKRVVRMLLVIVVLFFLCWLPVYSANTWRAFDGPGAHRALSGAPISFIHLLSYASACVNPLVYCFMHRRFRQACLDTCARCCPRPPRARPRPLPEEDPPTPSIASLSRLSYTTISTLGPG
Protocol: 2. CCK Receptor Binding (Brain)
CCK-33 was radiolabeled and the binding was performed according to the description for the pancreas method with modifications according to Saito et al., J. Neurochem. 37:483-490, 1981.
Male Hartley guinea pigs (300-500g) were sacrificed by decapitation and the brains were removed and placed in ice-cold 50 mM, Tris HCl plus 7.58 g/l Trizma-7.4 (ph 7.4 at 25°C). Cerebral cortex was dissected and used as a receptor source. Each gram of fresh guinea pig brain tissue was homogenized in 10 ml of Tris/Trizma buffer with a Brinkman polytron PT-10. The homogenates were centrifuged at 42,000 g for 15 minutes. Pellets were resuspended in Tris Buffer, centrifuged as above and resuspended in 200 volumes of binding assay buffer (10 mM N-2-hydroxyethyl-piperazine-N′-2-ethane sulfonic acid (HEPES), 5 mM MgCl₂, 0.25 mg/ml bacitracin, 1 mM ethylene glycol-bis-(β-aminoethylether-N,N′-tetraacetic acid) (EGTA), and 0.4% bovine serum albumin (BSA)). […] The supernatant was aspirated and discarded, pellets were counted with a Beckman gamma 5000.

In the case of `CN1C(=O)C(NC(=O)c2cc3cc(O)ccc3[nH]2)N=C(c2ccccc2)c2ccccc21` (centres unmarked) [Example 15, 1,3-Dihydro-3-(5-hydroxyindole-2-carbonylamino)-1-methyl-5-phenyl-2H-1,4-benzodiazepin-2-one], the IC50 (CCK receptor (pancreas)) is reported as 0.0033 µM and the IC50 [1] is reported as 0.91 µM.
